Results taken from patent publication US12544391B2, “CD73 inhibitors” (ORIC Pharmaceuticals, Inc., priority 2019, dated 2026).
pEC50, pIC50: −log10 of the molar value.

Columns and labels:
[1] = biological target: T1, cell bound CD73 on Human NSCLC H1568 cells (Homo sapiens, UniProt P21589); test: Cellular CD73 assay in H1568 cells, adenosine produced from AMP by LC-MS/MS; type: cell-based; conditions: RPMI/10% human plasma, 1 h with AMP/EHNA, adenosine in supernatant
T1 construct: Human NSCLC H1568 cells expressing endogenous CD73 on their surface; host or cells: H1568 (human NSCLC)
T1 sequence (P21589 27-549): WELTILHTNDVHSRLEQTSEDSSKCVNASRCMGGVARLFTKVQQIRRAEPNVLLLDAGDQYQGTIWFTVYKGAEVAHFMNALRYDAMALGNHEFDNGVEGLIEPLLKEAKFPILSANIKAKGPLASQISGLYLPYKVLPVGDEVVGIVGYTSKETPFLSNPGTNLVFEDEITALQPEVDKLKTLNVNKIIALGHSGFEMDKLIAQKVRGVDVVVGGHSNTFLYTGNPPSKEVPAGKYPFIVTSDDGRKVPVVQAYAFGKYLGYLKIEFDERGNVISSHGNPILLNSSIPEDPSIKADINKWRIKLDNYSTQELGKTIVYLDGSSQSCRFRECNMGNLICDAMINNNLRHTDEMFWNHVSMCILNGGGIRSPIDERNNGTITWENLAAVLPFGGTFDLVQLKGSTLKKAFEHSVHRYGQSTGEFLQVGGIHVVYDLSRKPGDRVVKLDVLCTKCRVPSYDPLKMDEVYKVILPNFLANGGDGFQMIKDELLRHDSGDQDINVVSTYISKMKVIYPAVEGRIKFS
Experimental: Activity of cell bound CD73 was assessed by direct measurement of adenosine produced from AMP using liquid chromatography with tandem mass-spectrometry (LC-MS/MS). Human NSCLC H1568 cells expressing endogenous CD73 on their surface were obtained from ATCC(CRL-5876) and cultured in growth medium (RPMI, 10% FBS, 1 mM L-glutamine, […]). Cells were seeded onto 96-well tissue culture plates at 10,000 cells/well and allowed to adhere for 20-24 h. 500× serial compound dilutions were prepared in DMSO in a 12-point 3-fold titration, and then diluted 1:50 into RPMI supplemented with 10% human plasma (BioIVT, cat #HMPLEDTA5) generating 10× compound dilutions. Growth medium was removed from the cells and replaced with […] of RPMI/10% human plasma. 10 mL of 10× compound dilutions were then added to the cells and incubated for 15 min at 37° C., 5% CO2. Then 10 mL of 100 mM AMP/50 mM EHNA (Sigma-Aldrich, A1752 and E114) were added to a final concentration of […]. After 1 h incubation at 37° C., 5% CO2, […] of supernatant was removed from the cells and transferred to a deep well polypropylene 96-well plate (Costar #3961) prefilled with 240 mL of organic solvent composed of methanol:acetonitrile (1:1, v/v) with 0.1% formic acid, plus 150 ng/mL of Adenosine-15N and AMP-13C as internal standards. Amount of unlabeled adenosine and AMP in each well was measured on AB Sciex API 4000 QTrap with Shimadzu LC-30AD UPLC system. Limits of adenosine and AMP detection were 10-10,000 nM and 20-10,000 nM, respectively. The IC50 values were determined based on amount of adenosine in the supernatant using four parameter non-linear regression curve fit. DMSO treated cells produced 3000-4000 nM adenosine under these conditions with negligible variability on the same day assays. Small amount of adenosine generated from AMP in the absence of cells (less than 100 nM) was used as 100% inhibition control. […]

[2] = biological target: T2, mouse CD73 (EMT6 breast cancer cells) (Mus musculus, UniProt Q61503); test: Cellular CD73 assay in mouse EMT6 breast cancer cells, adenosine by LC-MS/MS; type: cell-based; conditions: PBS/3% BSA, adenosine in supernatant
T2 construct: mouse EMT6 breast cancer cells which express endogenous CD73 on their surface; host or cells: EMT6 (mouse breast cancer)
T2 sequence (Q61503 29-551): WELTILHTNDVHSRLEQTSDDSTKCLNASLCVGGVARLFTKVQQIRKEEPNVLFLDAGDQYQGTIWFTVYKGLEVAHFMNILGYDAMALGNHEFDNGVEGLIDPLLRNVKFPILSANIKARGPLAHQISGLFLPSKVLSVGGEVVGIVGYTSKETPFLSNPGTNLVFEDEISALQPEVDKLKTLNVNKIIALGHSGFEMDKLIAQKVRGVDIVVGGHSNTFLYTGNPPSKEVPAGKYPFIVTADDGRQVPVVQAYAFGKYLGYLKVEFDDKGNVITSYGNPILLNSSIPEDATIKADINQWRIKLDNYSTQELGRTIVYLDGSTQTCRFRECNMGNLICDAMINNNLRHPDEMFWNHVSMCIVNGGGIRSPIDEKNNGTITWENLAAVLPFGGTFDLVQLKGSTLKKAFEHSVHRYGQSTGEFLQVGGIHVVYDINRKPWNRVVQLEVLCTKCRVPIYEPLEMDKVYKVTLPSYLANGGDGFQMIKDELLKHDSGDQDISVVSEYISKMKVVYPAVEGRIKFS
Experimental: Activity of cell bound CD73 was assessed by direct measurement of adenosine produced from AMP using liquid chromatography with tandem mass-spectrometry (LC-MS/MS). Human NSCLC H1568 cells expressing endogenous CD73 on their surface were obtained from ATCC(CRL-5876) and cultured in growth medium (RPMI, 10% FBS, 1 mM L-glutamine, 100 mL penicillin-streptomycin). Cells were seeded onto 96-well tissue culture plates at 10,000 cells/well and allowed to adhere for 20-24 h. 500× serial compound dilutions were prepared in DMSO in a 12-point 3-fold titration, and then diluted 1:50 into RPMI supplemented with 10% human plasma (BioIVT, cat #HMPLEDTA5) generating 10× compound dilutions. Growth medium was removed from the cells and replaced with […] of RPMI/10% human plasma. 10 mL of 10× compound dilutions were then added to the cells and incubated for 15 min at 37° C., 5% CO2. Then 10 mL of 100 mM AMP/50 mM EHNA (Sigma-Aldrich, A1752 and E114) were added to a final concentration of 10 mM AMP/5 mM EHNA. After 1 h incubation at 37° C., 5% CO2, 80 mL of supernatant was removed from the cells and transferred to a deep well polypropylene 96-well plate (Costar #3961) prefilled with 240 mL of organic solvent composed of methanol:acetonitrile (1:1, v/v) with 0.1% formic acid, plus 150 ng/mL of Adenosine-15N and AMP-13C as internal standards. Amount of unlabeled adenosine and AMP in each well was measured on AB Sciex API 4000 QTrap with Shimadzu LC-30AD UPLC system. Limits of adenosine and AMP detection were 10-10,000 nM and 20-10,000 nM, respectively. The IC50 values were determined based on amount of adenosine in the supernatant using four parameter non-linear regression curve fit. DMSO treated cells produced 3000-4000 nM adenosine under these conditions with negligible variability on the same day assays. Small amount of adenosine generated from AMP in the absence of cells (less than 100 nM) was used as 100% inhibition control.
To determine activity of compounds on mouse CD73 mouse EMT6 breast cancer cells which express endogenous CD73 on their surface (ATCC, CRL-2755) were used. […]

[3] = biological target: T3, CD73 (Homo sapiens, UniProt P21589); test: CD73 biochemical assay, Malachite Green detection of AMP hydrolysis; conditions: CD73 320 pM, AMP 15 μM, Malachite Green readout
T3 sequence (P21589 27-549): T1 sequence (P21589 27-549)
Procedure, shortened: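 Human CD73 (0.3208 nM, i.e. 320 pM) preincubated 15 min RT with compounds (10-point ½-log titration from 100 μM, duplicates) in Tris pH 7.4, 5 mM MgCl2, Brij-35, BSA; 15 μM AMP added, 10 min RT. Phosphate read by Malachite Green absorbance; IC50 determined.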

SMILES: COC[C@](COCc1nn[nH]n1)(OC[C@H]1O[C@@H](c2ccc3c(NC4CCCC4)nc(Cl)nn23)[C@H](O)[C@@H]1O)P(=O)(O)O (single isomer, unassigned) [Example 9]
- pEC50 [1]: ≥ 9.30
- pEC50 [2]: ≥ 9.30
- pIC50 [3]: ≥ 9.30

SMILES: O=P(O)(O)[C@@](CO)(COCc1nn[nH]n1)OC[C@H]1O[C@@H](c2ccc3c(NC4CCCC4)nc(Cl)nn23)[C@H](O)[C@@H]1O [Example 15, ((S)-1-((2H-Tetrazol-5-yl)methoxy)-2-(((2R,3S,4R,5S)-5-(2-chloro-4-(cyclopentylamino)pyrrolo[2,1-f][1,2,4]triazin-7-yl)-3,4-dihydroxytetrahydrofuran-2-yl)methoxy)-3-hydroxypropan-2-yl)phosphonic acid]
- pEC50 [1]: 9.00 to 9.30
- pEC50 [2]: 7.00 to 9.00
- pIC50 [3]: ≥ 9.30

SMILES: O=P(O)(O)[C@@](CO)(COCc1nn[nH]n1)OC[C@H]1O[C@@H](c2ccc3c(NC4CCC4)nc(Cl)nn23)[C@H](O)[C@@H]1O [Example 51, ((S)-1-((2H-tetrazol-5-yl)methoxy)-2-(((2R,3S,4R,5S)-5-(2-chloro-4-(cyclobutylamino)pyrrolo[2,1-f][1,2,4]triazin-7-yl)-3,4-dihydroxytetrahydrofuran-2-yl)methoxy)-3-hydroxypropan-2-yl)phosphonic acid]
- pEC50 [1]: ≥ 9.30
- pEC50 [2]: 9.00 to 9.30
- pIC50 [3]: ≥ 9.30
